The target in this test is T1, Polo-like kinase 1 polo-box domain (Plk1-PBD) (Homo sapiens, UniProt P53350).
T1 construct: HA-EGFP-Plk1 in mitotic 293A lysates
Description: ELISA-based Plk1 PBD competition assay (moderate activity). The class given is biochemical. (In an ELISA, binding on a coated surface is turned into a signal by an enzyme label.)

The text below walks through data of PMC4161390, “Design and Synthesis of a Cell-Permeable, Drug-Like Small Molecule Inhibitor Targeting the Polo-Box Domain of Polo-Like Kinase 1” (PLoS ONE, 2014).

T1 sequence (P53350 whole entry, the tested form may be a part): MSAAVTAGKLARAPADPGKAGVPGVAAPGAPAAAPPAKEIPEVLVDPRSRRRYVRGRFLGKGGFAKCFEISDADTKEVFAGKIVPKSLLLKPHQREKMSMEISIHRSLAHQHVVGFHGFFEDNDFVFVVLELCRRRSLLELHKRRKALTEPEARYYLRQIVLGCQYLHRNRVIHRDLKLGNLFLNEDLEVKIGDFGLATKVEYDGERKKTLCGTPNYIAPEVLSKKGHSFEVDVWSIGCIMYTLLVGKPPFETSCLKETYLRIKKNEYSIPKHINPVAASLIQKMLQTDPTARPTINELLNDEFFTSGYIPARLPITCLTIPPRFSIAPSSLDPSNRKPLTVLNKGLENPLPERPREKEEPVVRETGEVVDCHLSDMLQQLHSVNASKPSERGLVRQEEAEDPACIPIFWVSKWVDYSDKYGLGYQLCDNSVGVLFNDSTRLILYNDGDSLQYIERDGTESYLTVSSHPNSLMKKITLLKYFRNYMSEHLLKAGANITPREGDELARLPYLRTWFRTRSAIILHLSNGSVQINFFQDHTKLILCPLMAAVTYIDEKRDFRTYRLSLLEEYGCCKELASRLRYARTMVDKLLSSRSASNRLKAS

Regarding `O=c1c(O)cccc2cc(O)c(O)c(O)c12` [PPG, purpurogallin], the “ELISA-based Plk1 PBD competition assay (moderate activity)” value is “PPG PLS5 Bg-5 Bg-6|moderate weak weak weak|”.
